Legend:
[1] = Cell viability assay (AlamarBlue) in HepAD38 cells; conditions: human
[2] = system: HBV; test: Determination of HBV DNA from the supernatants of HepAD38 cells (anti-HBV activity); type: cell-based, hepatitis B virus; conditions: Hepatitis B virus, 144 h; HBV DNA in HepAD38 supernatant, day 6, qPCR; read-out: Cell Activity (EC50)
Summary of the method: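 Supernatant viral DNA was measured by LightCycler qPCR, calibrated with pCH-9/3091 plasmid, 6 days after tetracycline-free HepAD38 cultures received half-log serial compound dilutions; untreated and tetracycline-treated cells served as controls; EC50 was fitted by non-linear regression.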

[3] = molecular target: T1, HBV core protein (UniProt P03146); test: Biochemical capsid assembly assay (fluorescence quenching); design: species or system hepatitis B virus; conditions: read-out: Assembly Activity (IC50); BODIPY-FL labelled core protein, 300 μM NaCl, read 6 min after start
T1 construct: fused on or other part: BODIPY-FL maleimide label on the C-terminal Cys150
Summary of the method: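 Assembly-induced fluorescence quenching (477/525 nm) was measured 6 min after NaCl addition ([…]), against 2.5 M and 0 M NaCl controls. The labelled C150 core dimer (truncated at 149) at 1.0-2.0 μM in HEPES pH 7.5 was tested with eight half-log compound dilutions, top 100, 31.6 or 10 μM. EC50 was obtained by non-linear fit from triplicates run three times.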

T1 sequence (P03146 whole entry, looked up, the tested form may be a part): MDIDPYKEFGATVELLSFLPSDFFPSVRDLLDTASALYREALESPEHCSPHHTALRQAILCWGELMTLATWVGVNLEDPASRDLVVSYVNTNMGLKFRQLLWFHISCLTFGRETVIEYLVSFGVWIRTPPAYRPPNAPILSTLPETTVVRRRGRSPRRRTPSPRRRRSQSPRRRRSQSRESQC

Structure (SMILES): O=C(c1cc2ccccc2[nH]1)N1CCc2[nH]nc(C(=O)N3CC(CO)C3)c2C1 [Example 45, {1-[5-(1H-indole-2-carbonyl)-1H,4H,5H,6H,7H-pyrazolo[4,3-c]pyridine-3-carbonyl]azetidin-3-yl}methanol]
- CC50 at 6 days [1]: > 100 µM
- EC50 [2]: 1000 to 25000 nM
- IC50 [3]: < 100 µM

Structure (SMILES): CNC(=O)c1n[nH]c2c1CN(C(=O)c1cc3ccccc3[nH]1)CC2 [Example 285, 5-(1H-indole-2-carbonyl)-N-methyl-1H,4H,5H,6H,7H-pyrazolo[4,3-c]pyridine-3-carboxamide]
- CC50 at 6 days [1]: > 10 µM
- EC50 [2]: 1000 to 25000 nM
- IC50 [3]: < 100 µM

Structure (SMILES): O=C(c1cc2ccccc2[nH]1)N1CCc2[nH]nc(C(=O)N3C[C@@H]4[C@@H](CO)[C@@H]4C3)c2C1 [Example 175, [(±)-3-[5-(1H-indole-2-carbonyl)-1H,4H,5H,6H,7H-pyrazolo[4,3-c]pyridine-3-carbonyl]-3-azabicyclo[3.1.0]hexan-6-yl]methanol]
- CC50 at 6 days [1]: > 10 µM
- EC50 [2]: 1000 to 25000 nM
- IC50 [3]: 5 to 10 µM

Structure (SMILES): CN(C(=O)c1n[nH]c2c1CN(C(=O)c1cc3ccccc3[nH]1)CC2)C1COC1 [Example 188, 5-(1H-indole-2-carbonyl)-N-methyl-N-(oxetan-3-yl)-1H,4H,5H,6H,7H-pyrazolo[4,3-c]pyridine-3-carboxamide]
- CC50 at 6 days [1]: > 10 µM
- EC50 [2]: < 1000 nM
- IC50 [3]: 5 to 10 µM

Structure (SMILES): CC(O)CN(C)C(=O)c1n[nH]c2c1CN(C(=O)c1cc3ccccc3[nH]1)CC2 (stereo not drawn) [Example 41, N-(2-hydroxypropyl)-5-(1H-indole-2-carbonyl)-N-methyl-1H,4H,5H,6H,7H-pyrazolo[4,3-]pyridine-3-carboxamide]
- CC50 at 6 days [1]: > 100 µM
- EC50 [2]: < 1000 nM
- IC50 [3]: < 5 µM

Structure (SMILES): CCOCC1(N(C)C(=O)c2[nH]nc3c2CN(C(=O)c2cc4c(F)cc(F)cc4[nH]2)CC3)CC1 [Example 363, 5-(4,6-difluoro-1H-indole-2-carbonyl)-N-[1-(ethoxymethyl)cyclopropyl]-N-methyl-2H,4H,5H,6H,7H-pyrazolo[4,3-c]pyridine-3-carboxamide]
- CC50 at 6 days [1]: > 10 µM
- EC50 [2]: < 1000 nM
- IC50 [3]: < 5 µM

Structure (SMILES): CC(C)(C)OC(=O)N[C@@H]1CCN(C(=O)c2n[nH]c3c2CN(C(=O)c2cc4ccccc4[nH]2)CC3)C1 [Example 191, tert-butyl N-[(3R)-1-[5-(1H-indole-2-carbonyl)-1H,4H,5H,6H,7H-pyrazolo[4,3-c]pyridine-3-carbonyl]pyrrolidin-3-yl]carbamate]
- CC50 at 6 days [1]: > 10 µM
- EC50 [2]: 1000 to 25000 nM
- IC50 [3]: < 5 µM

Structure (SMILES): CCOCC1(N(C)C(=O)c2[nH]nc3c2CN(C(=O)c2cc4c(Cl)c(F)ccc4[nH]2)CC3)CC1 [Example 364, 5-(4-chloro-5-fluoro-1H-indole-2-carbonyl)-N-[1-(ethoxymethyl)cyclopropyl]-N-methyl-2H,4H,5H,6H,7H-pyrazolo[4,3-c]pyridine-3-carboxamide]
- CC50 at 6 days [1]: > 10 µM
- EC50 [2]: < 1000 nM
- IC50 [3]: < 5 µM

Structure (SMILES): CCOCC1(N(C)C(=O)c2[nH]nc3c2CN(C(=O)c2cc4c(Cl)cc(F)cc4[nH]2)CC3)CC1 [Example 365, 5-(4-chloro-6-fluoro-1H-indole-2-carbonyl)-N-[1-(ethoxymethyl)cyclopropyl]-N-methyl-2H,4H,5H,6H,7H-pyrazolo[4,3-c]pyridine-3-carboxamide]
- CC50 at 6 days [1]: > 10 µM
- EC50 [2]: < 1000 nM
- IC50 [3]: < 5 µM

Structure (SMILES): COCC1(N(C)C(=O)c2n[nH]c3c2CN(C(=O)c2cc4c(F)ccc(F)c4[nH]2)CC3)CC1 [Example 297, 5-(4,7-difluoro-1H-indole-2-carbonyl)-N-[1-(methoxymethyl)cyclopropyl]-N-methyl-1H,4H,5H,6H,7H-pyrazolo[4,3-c]pyridine-3-carboxamide]
- CC50 at 6 days [1]: > 10 µM
- EC50 [2]: < 1000 nM
- IC50 [3]: < 5 µM

Structure (SMILES): COCC1(N(C)C(=O)c2n[nH]c3c2CN(C(=O)c2cc4ccccc4[nH]2)CC3)CCC1 [Example 154, 5-(1H-indole-2-carbonyl)-N-[1-(methoxymethyl)cyclobutyl]-N-methyl-1H,4H,5H,6H,7H-pyrazolo[4,3-c]pyridine-3-carboxamide]
- CC50 at 6 days [1]: > 10 µM
- EC50 [2]: < 1000 nM
- IC50 [3]: 5 to 10 µM

Structure (SMILES): O=C(c1cc2ccccc2[nH]1)N1CCc2[nH]nc(C(=O)N3C[C@@H]4[C@@H](O)[C@@H]4C3)c2C1 [Example 176, (±)-3-[5-(1H-indole-2-carbonyl)-1H,4H,5H,6H,7H-pyrazolo[4,3-c]pyridine-3-carbonyl]-3-azabicyclo[3.1.0]hexan-6-ol]
- CC50 at 6 days [1]: > 10 µM
- EC50 [2]: 1000 to 25000 nM
- IC50 [3]: 5 to 10 µM

Structure (SMILES): CC1Cc2[nH]nc(-c3cscn3)c2CN1C(=O)c1cc2c(Cl)cc(F)cc2[nH]1 (stereo not drawn) [Example 37, 4-chloro-6-fluoro-2-[6-methyl-3-(1,3-thiazol-4-yl)-1H,4H,5H,6H,7H-pyrazolo[4,3-c]pyridine-5-carbonyl]-1H-indole]
- CC50 at 6 days [1]: > 32 µM
- EC50 [2]: < 1000 nM
- IC50 [3]: 5 to 10 µM

Structure (SMILES): COCCNC(=O)c1n[nH]c2c1CN(C(=O)c1cc3ccccc3[nH]1)CC2 [Example 104, 5-(1H-indole-2-carbonyl)-N-(2-methoxyethyl)-1H,4H,5H,6H,7H-pyrazolo[4,3-c]pyridine-3-carboxamide]
- CC50 at 6 days [1]: > 100 µM
- EC50 [2]: 1000 to 25000 nM
- IC50 [3]: < 100 µM

Structure (SMILES): CN(CCO)C(=O)c1n[nH]c2c1CN(C(=O)c1cc3c(F)ccc(F)c3[nH]1)CC2 [Example 53, 5-(4,7-difluoro-1H-indole-2-carbonyl)-N-(2-hydroxyethyl)-N-methyl-1H,4H,5H,6H,7H-pyrazolo[4,3-c]pyridine-3-carboxamide]
- CC50 at 6 days [1]: > 100 µM
- EC50 [2]: < 1000 nM
- IC50 [3]: < 5 µM

Structure (SMILES): CN(CCC#N)C(=O)c1n[nH]c2c1CN(C(=O)c1cc3ccccc3[nH]1)CC2 [Example 292, N-(2-cyanoethyl)-5-(1H-indole-2-carbonyl)-N-methyl-1H,4H,5H,6H,7H-pyrazolo[4,3-c]pyridine-3-carboxamide]
- CC50 at 6 days [1]: > 10 µM
- EC50 [2]: 1000 to 25000 nM
- IC50 [3]: < 5 µM

Structure (SMILES): CN(C(=O)c1[nH]nc2c1CN(C(=O)c1cc3c(F)cccc3[nH]1)CC2)C1CC1 [Example 322, N-cyclopropyl-5-(4-fluoro-1H-indole-2-carbonyl)-N-methyl-2H,4H,5H,6H,7H-pyrazolo[4,3-c]pyridine-3-carboxamide]
- CC50 at 6 days [1]: > 10 µM
- EC50 [2]: < 1000 nM
- IC50 [3]: < 5 µM

Structure (SMILES): CCc1cccc2[nH]c(C(=O)N3CCc4[nH]nc(C56CC(C5)C6)c4C3)cc12 [Example 331, 2-(3-{bicyclo[1.1.1]pentan-1-yl}-1H,4H,5H,6H,7H-pyrazolo[4,3-c]pyridine-5-carbonyl)-4-ethyl-1H-indole]
- CC50 at 6 days [1]: > 10 µM
- EC50 [2]: < 1000 nM
- IC50 [3]: < 5 µM

Structure (SMILES): CN(C(=O)c1[nH]nc2c1CN(C(=O)c1cc3ccccc3[nH]1)CC2)C1(c2cocn2)CC1 [Example 368, 5-(1H-indole-2-carbonyl)-N-methyl-N-[1-(1,3-oxazol-4-yl)cyclopropyl]-2H,4H,5H,6H,7H-pyrazolo[4,3-c]pyridine-3-carboxamide]
- CC50 at 6 days [1]: > 10 µM
- EC50 [2]: < 1000 nM
- IC50 [3]: < 5 µM

Structure (SMILES): [2H]C([2H])([2H])N(C(=O)c1n[nH]c2c1CN(C(=O)c1cc3ccccc3[nH]1)CC2)C1(COC)CC1 [Example 201, 5-(1H-indole-2-carbonyl)-N-[1-(methoxymethyl)cyclopropyl]-N-(2H3)methyl-1H,4H,5H,6H,7H-pyrazolo[4,3-c]pyridine-3-carboxamide]
- CC50 at 6 days [1]: > 10 µM
- EC50 [2]: < 1000 nM
- IC50 [3]: < 5 µM

Structure (SMILES): CN(C(=O)c1n[nH]c2c1CN(C(=O)c1cc3ccccc3[nH]1)CC2)C1(c2ccccn2)CC1 [Example 311, 5-(1H-indole-2-carbonyl)-N-methyl-N-[1-(pyridin-2-yl)cyclopropyl]-1H,4H,5H,6H,7H-pyrazolo[4,3-c]pyridine-3-carboxamide]
- CC50 at 6 days [1]: > 10 µM
- EC50 [2]: < 1000 nM
- IC50 [3]: < 5 µM

Structure (SMILES): CNC(C)(C)COC(=O)c1n[nH]c2c1CN(C(=O)c1cc3ccccc3[nH]1)CC2 [Example 31, 2-methyl-2-(methylamino)propyl 5-(1H-indole-2-carbonyl)-1H,4H,5H,6H,7H-pyrazolo[4,3-c]pyridine-3-carboxylate]
- CC50 at 6 days [1]: > 100 µM
- EC50 [2]: 1000 to 25000 nM
- IC50 [3]: 5 to 10 µM

Structure (SMILES): CN(CCO)C(=O)c1n[nH]c2c1CN(C(=O)c1cc3c(C(F)F)cccc3[nH]1)CC2 [Example 4, 5-[4-(difluoromethyl)-1H-indole-2-carbonyl]-N-(2-hydroxyethyl)-N-methyl-1H,4H,5H,6H,7H-pyrazolo[4,3-c]pyridine-3-carboxamide]
- CC50 at 6 days [1]: > 10 µM
- EC50 [2]: < 1000 nM
- IC50 [3]: < 5 µM

Structure (SMILES): O=C(c1cc2c(Cl)cc(F)cc2[nH]1)N1CCc2[nH]nc(-c3cscn3)c2C1 [Example 46, 4-chloro-6-fluoro-2-[3-(1,3-thiazol-4-yl)-1H,4H,5H,6H,7H-pyrazolo[4,3-c]pyridine-5-carbonyl]-1H-indole]
- CC50 at 6 days [1]: > 100 µM
- EC50 [2]: < 1000 nM
- IC50 [3]: < 5 µM

Structure (SMILES): CN(Cc1ccccc1)C(=O)c1n[nH]c2c1CN(C(=O)c1cc3ccccc3[nH]1)CC2 [Example 178, N-benzyl-5-(1H-indole-2-carbonyl)-N-methyl-1H4H,5H,6H,7H-pyrazolo[4,3-c]pyridine-3-carboxamide]
- CC50 at 6 days [1]: > 10 µM
- EC50 [2]: < 1000 nM
- IC50 [3]: < 5 µM

Structure (SMILES): CN(C(=O)c1n[nH]c2c1CN(C(=O)c1cc3ccccc3[nH]1)CC2)C1CCOC1 (stereo not drawn) [Example 189, 5-(1H-indole-2-carbonyl)-N-methyl-N-(oxolan-3-yl)-1H4H,5H,6H,7H-pyrazolo[4,3-c]pyridine-3-carboxamide]
- CC50 at 6 days [1]: > 10 µM
- EC50 [2]: 1000 to 25000 nM
- IC50 [3]: < 100 µM
